The test system of one test is DAPI. Kind of test: triacylglycerol accumulation inhibitor potency, dose response, cell-based, panel, Nile Red and DAPI fluorescence, H9c2 (AID 651630).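 Also: cells exposed to compound overnight before fixation and staining.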 The settings on record: H9c2 cells, DAPI nuclear fluorescence (cytotoxicity counter-readout), oleic acid.
The subject of the next test is TAG. Described as above. The settings on record: H9c2 cells, Nile Red TAG fluorescence, oleic acid.

Calls of active or inactive are those of the source.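 The calls were made as follows: active = lipid-stain IC50 at or below a set limit, with nuclear-stain toxicity IC50 at least five times higher; inactive = the rest.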 A value given as a limit tells only on which side of the number the result lay.

The term IC50 denotes the midpoint of a concentration-inhibition curve. As for `CCOC(=O)c1cc(-c2ccccc2)sc1NC(=O)COC(=O)c1cccc(S(N)(=O)=O)c1`, the results for the IC50 cytotoxicity (DAPI nuclear signal decrease) in the test on DAPI (mean of runs), with DAPI (run 1) and in the test with DAPI (run 2) were > 25 µM (inactive), greater than 25 µM and greater than 25 µM, respectively. The values for the IC50 with TAG (run 1) and with TAG (run 2) were greater than 25 µM and 21.4 µM, respectively.
In the case of `O=C(Nc1ccc(S(=O)(=O)N2CCOCC2)cc1)c1ccc([N+](=O)[O-])s1`, the values for the IC50 cytotoxicity (DAPI nuclear signal decrease) with DAPI (mean of runs), in the test on DAPI (run 1) and in the test with DAPI (run 2) were > 25 µM (inactive), greater than 25 µM and greater than 25 µM, respectively. The IC50 in the test with TAG (mean of runs) is 10.9 µM; with TAG (run 1), 13.1 µM; in the test with TAG (run 2), 8.75 µM.
For the compound `CC(C)C[C@H]1C(=O)N2CCC[C@H]2[C@]2(O)O[C@](NC(=O)C3C=C4c5cccc6[nH]c(Br)c(c56)C[C@H]4N(C)C3)(C(C)C)C(=O)N12` (some centres not stated), the IC50 cytotoxicity (DAPI nuclear signal decrease) in the test with DAPI (mean of runs) is > 25 µM (inactive); with DAPI (run 1) it was greater than 25 µM; with DAPI (run 2), greater than 25 µM. In addition, the IC50 in the test with TAG (mean of runs) is 6.4 µM; in the test on TAG (run 1), 5.42 µM; in the test with TAG (run 2), 7.37 µM.
Regarding `COc1ccc(CC(=O)Nc2ccc(-c3nnc(-c4ccc(C)cc4)o3)cc2)cc1`, the figures for the IC50 cytotoxicity (DAPI nuclear signal decrease) in the test with DAPI (mean of runs), in the test on DAPI (run 1) and in the test with DAPI (run 2) were > 25 µM (inactive), greater than 25 µM and greater than 25 µM, respectively. Besides, the IC50 with TAG (mean of runs) is > 25 µM (inactive); with TAG (run 1), greater than 25 µM; with TAG (run 2), greater than 25 µM.
Regarding `CCC1(O)CC2CN(CCc3c([nH]c4ccccc34)C(C(=O)OC)(c3cc4c(cc3OC)N(C=O)C3C(O)(C(=O)OC)C(OC(C)=O)C5(CC)C=CCN6CCC43C65)C2)C1` (configuration not stated), the IC50 cytotoxicity (DAPI nuclear signal decrease) is > 25 µM (inactive) in the test on DAPI (mean of runs), greater than 25 µM in the test with DAPI (run 1) and greater than 25 µM with DAPI (run 2). Further, the 50% inhibitory concentration (IC50) in the test with TAG (run 1) was less than 0.78 µM; with TAG (run 2), greater than 25 µM.
As for `c1ccc(-c2csc(NNC3=NCCCCC3)n2)cc1`, the IC50 cytotoxicity (DAPI nuclear signal decrease) in the test with DAPI (run 1) and with DAPI (run 2) was greater than 25 µM throughout. Moreover, the figures for the IC50 in the test with TAG (mean of runs), in the test on TAG (run 1) and in the test with TAG (run 2) were 3.65 µM, 3.15 µM and 4.14 µM, respectively.
In the case of `CCCSc1nc(SCC(=O)NCc2ccccc2)c2c3c(sc2n1)COC(C)(CC)C3` (configuration not stated), the IC50 cytotoxicity (DAPI nuclear signal decrease) was > 25 µM (inactive) in the test with DAPI (mean of runs), greater than 25 µM in the test with DAPI (run 1) and greater than 25 µM with DAPI (run 2). The IC50 in the test on TAG (mean of runs) is > 25 µM (inactive); in the test with TAG (run 1) it was greater than 25 µM; in the test with TAG (run 2) it was greater than 25 µM.
With `C[C@H](CO)N1C[C@H](C)[C@H](CN(C)S(=O)(=O)c2ccc(Cl)cc2)OCc2ccccc2-c2c(n(C)c3ccccc23)C1=O`, the figures for the IC50 cytotoxicity (DAPI nuclear signal decrease) in the test with DAPI (run 1) and in the test on DAPI (run 2) were 13 µM and greater than 25 µM, respectively. In addition, the IC50 in the test on TAG (mean of runs) was > 25 µM (inactive); in the test with TAG (run 1) it was greater than 25 µM; with TAG (run 2) it was greater than 25 µM.
`Cc1c(C(=O)OCC(C)C)[nH]c2c1C(=O)CC(c1cccs1)C2` (configuration not stated): the IC50 cytotoxicity (DAPI nuclear signal decrease) with DAPI (mean of runs) was > 25 µM (inactive); in the test with DAPI (run 1) it was greater than 25 µM; in the test with DAPI (run 2), greater than 25 µM. Further, the figures for the IC50 in the test on TAG (mean of runs), with TAG (run 1) and in the test with TAG (run 2) were > 25 µM (inactive), greater than 25 µM and greater than 25 µM, respectively.
`CCCCCCCCn1c(N2CCN(c3cccc(Cl)c3)CC2)nc2c1c(=O)[nH]c(=O)n2C`: the IC50 cytotoxicity (DAPI nuclear signal decrease) with DAPI (mean of runs) was > 25 µM (inactive); in the test with DAPI (run 1) it was greater than 25 µM; in the test with DAPI (run 2), greater than 25 µM. Moreover, the IC50 in the test on TAG (mean of runs) was > 25 µM (inactive); in the test with TAG (run 1), greater than 25 µM; in the test with TAG (run 2) it was greater than 25 µM.
As for `CC(C)(C)NC(=O)C[C@H]1C[C@H](C(=O)N2CCCCC2)[C@@]2(CCc3ccccc3)c3[nH]c4ccc(Cl)cc4c3CCN2C1=O`, the IC50 cytotoxicity (DAPI nuclear signal decrease) is > 25 µM (inactive) in the test on DAPI (mean of runs), greater than 25 µM in the test on DAPI (run 1) and greater than 25 µM with DAPI (run 2). In addition, the results for the IC50 in the test with TAG (mean of runs), in the test with TAG (run 1) and in the test with TAG (run 2) were 17.7 µM (inactive), 17.1 µM and 18.2 µM, respectively.
On to `COCCn1cnc2c(c1=O)c1nc3ccccc3nc1n2/N=C/c1ccc(OC)c(OC)c1`, for which the IC50 cytotoxicity (DAPI nuclear signal decrease) in the test with DAPI (run 1) is 23.4 µM; in the test on DAPI (run 2), greater than 25 µM. The results for the IC50 in the test on TAG (mean of runs), with TAG (run 1) and with TAG (run 2) were 5.19 µM, 3.71 µM and 6.68 µM, respectively.
`O=C(Nc1cccc(Cl)c1)c1nc[nH]c1C(=O)NCCCNC(=O)c1[nH]cnc1C(=O)Nc1cccc(Cl)c1`: the IC50 cytotoxicity (DAPI nuclear signal decrease) with DAPI (mean of runs) was > 25 µM (inactive); with DAPI (run 1), greater than 25 µM; in the test with DAPI (run 2), greater than 25 µM. Moreover, the IC50 in the test on TAG (run 1) was 9.63 µM; in the test with TAG (run 2), greater than 25 µM.
With `CC(=O)c1cccc(-c2ccnc3c2CC(C(=O)NCc2ccco2)O3)c1` (configuration not stated), the IC50 cytotoxicity (DAPI nuclear signal decrease) is > 25 µM (inactive) in the test with DAPI (mean of runs), greater than 25 µM in the test on DAPI (run 1) and greater than 25 µM in the test with DAPI (run 2). For the same compound, the IC50 in the test with TAG (mean of runs) was > 25 µM (inactive); in the test with TAG (run 1) it was greater than 25 µM; with TAG (run 2), greater than 25 µM.
In the case of `COc1cccc(/C=C/C(=C2/C(=O)N(c3ccccc3)N=C2C)c2ccc(C)cc2)c1OC`, the IC50 cytotoxicity (DAPI nuclear signal decrease) with DAPI (run 1) and in the test with DAPI (run 2) was greater than 25 µM each time. The IC50 was 1.63 µM in the test on TAG (mean of runs), 1.64 µM in the test with TAG (run 1) and 1.61 µM in the test on TAG (run 2).
On to `CCOc1c(Br)cc(CNC2CCCCCCC2)cc1OC`, for which the IC50 cytotoxicity (DAPI nuclear signal decrease) with DAPI (mean of runs) was 19.7 µM (inactive); in the test on DAPI (run 1), 18.8 µM; in the test on DAPI (run 2), 20.6 µM. Moreover, the IC50 in the test with TAG (mean of runs) was > 25 µM (inactive); in the test on TAG (run 1), greater than 25 µM; with TAG (run 2), greater than 25 µM.
`CCN(CC)CCNC(=O)C(Cl)=C1C(Cl)=C(Cl)C(Cl)=C1Cl`: the IC50 cytotoxicity (DAPI nuclear signal decrease) was 21.4 µM (inactive) in the test with DAPI (mean of runs), 20.2 µM in the test on DAPI (run 1) and 22.7 µM in the test on DAPI (run 2). Moreover, the IC50 is > 25 µM (inactive) in the test with TAG (mean of runs), greater than 25 µM in the test on TAG (run 1) and greater than 25 µM in the test with TAG (run 2).
`CC1CC2(C)Oc3ccccc3CC2C(C)C1CNCCCN(C)C` (configuration not stated): the results for the IC50 cytotoxicity (DAPI nuclear signal decrease) with DAPI (mean of runs), with DAPI (run 1) and in the test with DAPI (run 2) were 18.9 µM (inactive), 18.4 µM and 19.5 µM, respectively. The results for the IC50 in the test with TAG (mean of runs), in the test on TAG (run 1) and in the test with TAG (run 2) were > 25 µM (inactive), greater than 25 µM and greater than 25 µM, respectively.
Take `COc1cc(OC)c2c(-c3ccccc3)cc(=O)oc2c1C(CCN1CCN(c2ccccc2)CC1)c1ccc(N(C)C)cc1` (configuration not stated): the IC50 cytotoxicity (DAPI nuclear signal decrease) is > 25 µM (inactive) in the test on DAPI (mean of runs), greater than 25 µM with DAPI (run 1) and greater than 25 µM in the test with DAPI (run 2). For the same compound, the values for the half-inhibitory concentration (IC50) in the test with TAG (mean of runs), with TAG (run 1) and with TAG (run 2) were 6.35 µM, 6.75 µM and 5.95 µM, respectively.
